The text below walks through data of patent US20080152714A1, “Pharmaceutical Formulations” (priority 2005, published 2008).

Data set [1] can be described thus: Intrinsic dissolution rate (IDR). Conditions: pH 6.8, 50 mM sodium citrate buffer, 37° C. The data set is classed as physicochemical.
Method: The intrinsic dissolution rate is the rate of dissolution of pharmaceutically acceptable ingredients when conditions such as surface area, agitation or stirring speed, pH and ionic strength of the dissolution medium are held constant.
Pellets of the salts were prepared by compressing ca. 100 mg of the compound in a stainless steel die under 1300 pounds force with a dwell time of one minute. The die containing the tablet was submerged in 400 mL of the dissolution medium at 37° C. The solution was stirred by a paddle at ˜60 rpm. At each time point, 3 mL of sample was withdrawn and filtered. After discarding the first half of the filtrate, the remainder was collected and assayed by HPLC method above. The total volume of the dissolution medium was kept at a constant by replenishing the lost volume at each data point with fresh buffer at 37 C.
The nature of data set [2]: Solubility of fenofibric acid salts in water at 25° C. The data set is classed as physicochemical. Here is the method:
Solubility Determination: Solubility values of fenofibric acid salts in water were determined at 25° C. The salts were weighed into glass vials and water was added. The suspensions were rotated from end to end for about 2 days in a 25° C. water bath. The pH of the suspensions was measured. The residual solid was then removed via filtration through a 0.45 μm PTFE membrane filter. The resulting saturated solution was diluted appropriately into the HPLC mobile phase, and analyzed by the HPLC assay described below (Table 3). The powder x-ray diffraction pattern of the collected residual solid was recorded at the end of experiment.

Read-outs that look alike come from different tables or passages of the source.

On to Calcium, for which, in data set [1], the IDR was determined as 0.10 mg/min/cm^2.

In the case of `CN(C)C(=N)N=C(N)N` [Metformin], the IDR in data set [1] is given as 7.09 mg/min/cm^2.

The compound `NCCO` [Ethanolamine] yielded an IDR in data set [1] of 8.05 mg/min/cm^2.

In data set [1], Tris registered an IDR of 0.67 mg/min/cm^2. The solubility (in general, how much of the substance goes into solution per volume) in data set [2] was found to be 5450 µg/mL.

As to `CCN(CC)CCOC(=O)c1ccc(N)cc1` [Procaine], the IDR in data set [1] amounted to 1.06 mg/min/cm^2. In addition, the solubility in data set [2] (read-out: Solubility) was found to be 7200 µg/mL.

With `CC(C)(Oc1ccc(C(=O)c2ccc(Cl)cc2)cc1)C(=O)O` [Free acid, 2-[4-(4-chlorobenzoyl)phenoxy]-2-methyl-propanoic acid, reference compound], the IDR in data set [1] stood at 0.30 mg/min/cm^2. Further, the solubility in data set [2] (read-out: Solubility) was 265 µg/mL.

In turn, `C[N+](C)(C)CCO` [Choline] gave an IDR in data set [1] of 14.50 mg/min/cm^2. Further, the solubility in data set [2] (read-out: Solubility) was over 300000 µg/mL.
